Source: a compilation of properties of binary mixtures (doi:10.1016/j.molliq.2021.116805)

Experiment: xn = mol fraction of the nth substance listed
Settings: 101 kPa

CCCCCCCCCCCCCCCCCC[n+]1ccn(C)c1.O=S(=O)([N-]S(=O)(=O)C(F)(F)F)C(F)(F)F + CCCCCCCCCCCCCCCCn1cc[n+](C)c1.O=S(=O)([N-]S(=O)(=O)C(F)(F)F)C(F)(F)F
viscosity (333 K, x2 = 0.621): 59.3 mPa·s | viscosity (343 K, x2 = 0.621): 41.1 mPa·s | viscosity (353 K, x2 = 0.621): 29.6 mPa·s

CCCCCCCCCCCCCC[n+]1ccn(C)c1.O=S(=O)([N-]S(=O)(=O)C(F)(F)F)C(F)(F)F + CCCCCCCCCCCCCCCCn1cc[n+](C)c1.O=S(=O)([N-]S(=O)(=O)C(F)(F)F)C(F)(F)F
viscosity (313 K, x1 = 0.6709): 102.6 mPa·s | viscosity (323 K, x1 = 0.6709): 66.3 mPa·s | viscosity (333 K, x1 = 0.6709): 45.2 mPa·s | viscosity (343 K, x1 = 0.6709): 32 mPa·s | viscosity (353 K, x1 = 0.6709): 23.4 mPa·s

CCCCCCCCCCCCCCCCCC[n+]1ccn(C)c1.O=S(=O)([N-]S(=O)(=O)C(F)(F)F)C(F)(F)F + CCCCCCCCCCCCCC[n+]1ccn(C)c1.O=S(=O)([N-]S(=O)(=O)C(F)(F)F)C(F)(F)F
viscosity (333 K, x2 = 0.7675): 49.6 mPa·s | viscosity (343 K, x2 = 0.7675): 34.8 mPa·s | viscosity (353 K, x2 = 0.7675): 25.4 mPa·s
